The nature of one data set: in vitro. The class given is in vitro ADME. Particulars: human plasma, 37° C., read-out: Plasma Stability (Human) t½ (converted). The method, then: (§1) LC-MS Method 2. Chromatographic separation was performed on an Acquity UPLC BEH C18 1.7 μm, 2.1×50 mm column (Waters Corporation, Milford, Mass.) or a Luna Omega 1.6 μm C18, 2.1×50 mm column (Phenomenex, Torrance, Calif.) using an Acquity ultra performance liquid chromatography system. Data were acquired using Masslynx v. 4.1 and analyzed using the Openlynx software suite. This was coupled to an Acquity photodiode array detector, which acquired UV data from 210-400 nm. The flow was then split, with half directed to an evaporative light scattering detector (ELSD) and half to an SQ mass spectrometer. The total flow rate was 1 mL/min. The sample injection volume was 10 μL. The UPLC column was maintained at 60° C. and the gradient program with either basic mobile phase (A1, 10 mM ammonium bicarbonate in MilliQ H2O; B1, 0.1% formic acid in acetonitrile) or formic mobile phase (A1, 0.1% formic acid in MilliQ H2O; B1, 0.1% formic acid in acetonitrile) based on the compounds' physical and chemical properties. The mass spectrometer was operated in positive-ion mode with electrospray ionization. The conditions were as follows; capillary voltage 3.4 kV, cone voltage 30 V, source temperature 130° C., desolvation temperature 400° C., desolvation gas 800 L/hr, cone gas 100 L/hr. A full scan range from m/z=110-1000 in 0.2 s was used to acquire MS data. The ELSD-drift tube temperature was set at 52° C.
Plasma stability was determined after incubation in human plasma for various incubation time, i.e., incubation times of 0, 3, 24, and 48 hour were used. DMSO stock solutions of test compounds were prepared at 10 mM concentration. 1.8 μL of each test compound was each added directly to 1.8 mL of human plasma to get the final concentration of 10 μM. This compound/matrix was mixed and 70 μL was transferred to 4 time points plates (each in triplicate wells). […] The plasma stability was evaluated via the half-life from least-squares fit of the multiple time points based on first-order kinetics.

Data set [1] in a line: Metabolic stability, human liver microsomal degradation. It is filed as in vitro ADME. As to conditions: human liver microsomes; read-out: Metabolic Stability (Human) t½ (converted). The method, then: as §1
The stability of compounds to human liver microsomal degradation, i.e., metabolic stability, was determined as described previously (see North, E. J., et al, Bioorg. Med. Chem. (2013) 21(9):2587-2599) and the rate of degradation was monitored by LC-MS analysis using multiple sampled time points as described herein above in LC-MS Method 2. Metabolic stability was evaluated via the half-life from least squares fit of the concentration remaining at the time points based on first-order kinetics.

Data set [2] can be described thus: Single ascending maximum tolerated dose study in rat. The class given is in vivo. Particulars: female Sprague-Dawley rats. On the procedure: Several compounds were assessed in single ascending maximum tolerated studies. The compounds assessed were 1810; 3408, a prodrug form of compound 1810; 1599, a chloro homologue of compound 1810; and gentamicin, an antimicrobial associated with ototoxicity. The study was carried out in female Sprague-Dawley rats (n=3 per group). All the drug solutions were prepared in water and PLASMA-LYTE A (50:50; […] was obtained from Baxter Healthcare Corporation, Deerfield, Ill.). Each group of rats were fasted overnight with access to water aJ libitum and a fixed volume (2 mL) of drug-containing solution was administered via the jugular vein catheter. Food was withheld for 3 h post dosing. Different phases of the study were classified on five different speeds of i.v, administration; Phase 1: 5 sec, Phase 2: 30 sec, Phase 3: 5 min, Phase 4: 15 min, Phase 5: 30 min. In the first and second phases, a set of predefined dose levels: 10, 25, 50, 75, 100, 150, 300, 350, 400, 450 and 500 mg/kg. Escalation to the next higher dose was conditional upon absence of signs of acute toxicity following the immediate lower dose over a 24 h period. All animals were monitored by visual inspection focused on focus on changes in skin, fur, eyes, and also respiratory, circulatory, autonomic and central nervous systems, along with somatomotor activity and behavior pattern, including tremors, convulsions, salivation, diarrhea, lethargy, sleep and coma. A dose level was deemed an MTD if […] of acute toxicity were observed and that dose was chosen for the second phase of the study where the process was repeated to determine a toxic dose. For third, fourth and fifth phases, dosing solution was infused by a Instech tethering system (Instech Laboratories Inc., Plymouth Meeting, Pa.) where the animal is freely moving within its cage, the catheter connection is held in place by a vascular access harness and a swivel system, and the drug administration is performed via a Harvard Apparatus programmable syringe pump. After dosing, the tether was removed immediately after completion of the infusion and the catheter was flushed with (100 μL) PlasmaLyte A. Surviving animals from the previous dose with no signs of toxicity were re-used in either phases of these studies upon allowing a one day drug washout period.

This is an account of results in US20210388012A1, “METHODS AND COMPOSITIONS FOR PRODRUG FORMS OF SPECTINOMYCIN AND SPECTINAMIDE ANALOGS” (priority 2018, published 2021).

Where only a bound is given, the exact number is not on record here.

As to `CCOP(=O)(OCC)Oc1ccc(CC(=O)N[C@@H]2C[C@@H](C)O[C@H]3O[C@@H]4[C@@H](O)[C@H](NC)[C@H](O)[C@H](NC)[C@H]4O[C@]32O)nc1` [Compound 3906, Diethyl (6-(2-oxo-2-(((2R,4R,4aS, 5aR,6S,7S,8R,9S,9aR,10aS)-4a,7,9-trihydroxy-2-methyl-6,8-bis(methylamino)decahydro-2H-benzo[b]pyrano[2,3-e][1,4]dioxin-4-yl)amino)ethyl)pyridin-3-yl) phosphate], the half-life at 10 µM in the data set “in vitro” is 19.5 h. Besides, the half-life in data set [1] is 3.61 h.

For the compound `CN[C@@H]1[C@H](O)[C@H](NC)[C@H]2O[C@]3(O)[C@H](O[C@@H]2[C@H]1O)O[C@H](C)C[C@@]3(O)CNCc1ccc(F)c(OP(=O)(O)O)c1` [Compound 3959, 2-fluoro-5-(((((2R,4R,4aS,5aR,6S,7S,8R,9S,9aR,10aS)-4,4a,7,9-tetrahydroxy-2-methyl-6,8-bis(methylamino)decahydro-2H-benzo[b]pyrano[2,3-e][1,4]dioxin-4-yl)methyl)amino)methyl)phenyl dihydrogen phosphate], the half-life in data set [1] was 1.84 h.

`CN[C@@H]1[C@H](O)[C@H](NC)[C@H]2O[C@]3(O)[C@H](O[C@@H]2[C@H]1O)O[C@H](C)C[C@H]3NC(=O)Cc1ccc(-c2ccc(OP(=O)(O)O)cc2)cn1` [Compound 4074, 4-(6-(2-oxo-2-(((2R, 4R, 4aS, 5aR, 6S, 7S, 8R, 9S, 9aR, 10aS)-4a,7,9-trihydroxy-2-methyl-6,8-bis(methyl-amino)decahydro-2H-benzo[b]pyrano[2,3-e][1,4]dioxin-4-yl)amino)ethyl)pyridin-3-yl)phenyl dihydrogen phosphate]: the half-life at 10 µM in the data set “in vitro” is less than 0.0833 h. For the same compound, the half-life in data set [1] was 2.98 h.

The MTD is the largest dose that counted as tolerated. Higher therefore signals a wide tolerated range. As for gentamicin [reference compound], the maximal tolerated dose (MTD) stood at 100 mg/kg in data set [2] (5 second IV bolus); 100 mg/kg in data set [2] (30 second IV bolus); 200 mg/kg in data set [2] (5 minute IV infusion); 300 mg/kg in data set [2] (15 minute IV infusion); 400 mg/kg in data set [2] (30 minute IV infusion).
